Experimental data published in patent US20140248373A1, “ENHANCED PERFORMANCE HYDROGEN PEROXIDE FORMULATIONS COMPRISING PROTEINS AND SURFACTANTS” (Advanced BioCatalytics Corporation, priority 2008, published 2014).
Like-named read-outs stand apart in the source and are kept apart here.

How the values were obtained:
[1] = Oxidation-reduction potential by Square Wave Voltammetry (SWVA); type: physicochemical; details: for Wave Height, I, mA / E, mV vs. Ag/AgCl: SWVA; for E, mV vs. Ag/AgCl: absence of atmospheric oxygen
Procedure: The compatibility of H2O2 and the protein/surfactant system was assessed using two approaches. […] Second, H2O2 concentration was determined over various time periods, up to one year, in the mixtures of hydrogen peroxide and protein/surfactant mixture, by volumetric titration with standardized permanganate solution. ORP measurements were conducted using Square Wave Voltammetry (SWVA) in a glove box, in the absence of atmospheric oxygen. Solutions 27% and 15% H2O2 with and without addition of 5% protein/surfactant were taken for these experiments.

E. Coli = details: for E. Coli Sample (CFU/mL): 5% Horse serum
Procedure: (§1) The following tests were run with PS-2 at a 4% concentration (0.72% total surfactant), H2O2 at 3% and phosphoric acid at <0.1% to pH 2.9, Versene (EDTA) at 0.1%. Test methodology was Suspension Based, Quantitative Time-Kill at 22° C., but with 5% Horse serum added to show the effects of organic contaminant on antimicrobial activity. A control of 3% H2O2 was run in this example.

S. aureus = details: for S. aureus Sample (CFU/mL): 5% Horse serum
Procedure: as §1

[2] = exposure time of up to 10 minutes, organic contamination

Q: With `OO` [Composition H2O2, hydrogen peroxide] as the compound, how does the “Potential (apex of current wave)” value ([1]; NHE) read?
A: about 1.8 V

Q: What about the “Potential (apex of current wave)” value ([1]; against saturated silver/silver chloride electrode) of the same compound?
A: about 1.6 V

Q: With `OO` [Control, 3% H2O2, hydrogen peroxide] as the compound, how does the “E. Coli Sample (CFU/mL)” value (E. Coli; 1 min) read?
A: 1.71E+07 CFU/mL

Q: What about the “E. Coli Sample (CFU/mL)” value (E. Coli; 5 min) of the same compound?
A: 6.80E+06 CFU/mL

Q: What about the “E. Coli Sample (CFU/mL)” value (E. Coli; 10 min) of the same compound?
A: 1.36E+06 CFU/mL

Q: What about the “E. Coli Sample (CFU/mL)” value (E. Coli; "Time Zero") of the same compound?
A: 1.99E+07 CFU/mL

Q: What about the “log reduction, gram negative pathogen (E. Coli)” value (E. Coli; [2]) of the same compound?
A: 1 log

Q: And the “S. aureus Sample (CFU/mL)” value (S. aureus; 1 min)?
A: 1.20E+07 CFU/mL

Q: What about the “S. aureus Sample (CFU/mL)” value (S. aureus; 5 min) of the same compound?
A: 8.80E+06 CFU/mL

Q: What about the “S. aureus Sample (CFU/mL)” value (S. aureus; 10 min) of the same compound?
A: 3.86E+06 CFU/mL

Q: And the “S. aureus Sample (CFU/mL)” value (S. aureus; "Time Zero")?
A: 1.04E+07 CFU/mL

Q: What about the “log reduction, gram positive pathogen (S. aureus)” value (S. aureus; [2]) of the same compound?
A: 1 log

Q: For `OO` [H2O2, 15%, hydrogen peroxide], which “Wave Height, I, mA” value [1] is on record?
A: 85 mA

Q: And the “E, mV vs. Ag/AgCl” value [1]?
A: 1,550 mV

Q: Which results are given for `OO` [H2O2, 27%, hydrogen peroxide]?
A: Wave Height, I, mA [1]: 92 mA; E, mV vs. Ag/AgCl [1]: 1,600 mV; Wave Height, I, mA ([1]; listed as pure H2O2): about 92 mA
